“And” between values parts separate entries of the source, which are not always exact repeats. Identical values can stand only once. Counter-ions that a name gives are not always drawn.
System: 5-HIAA release in the rat prefrontal cortex
Experiment: Microdialysis: 5-HIAA release in prefrontal cortex after I.P. administration
Assay type: in vivo
Details: for 5-HIAA release (% of basal levels) measured in dialysates, MEAN / 5-HIAA (% of respective basal) MEAN: n = 8; for 5-HIAA release (% of basal levels) measured in dialysates: individual animals, hydrochloride, 3 mg/kg; for 5-HIAA (% of respective basal) MEAN: SON-117 group 0.1 mg/kg I.P.
Description: The aim of the study was to evaluate, using microdialysis, the effects of an intraperitoneal (I.P.) administration in rats of three different doses of SON-117 on dopamine and its metabolites, serotonin and its metabolite (5-HIAA), and norepinephrine levels in prefrontal cortex.
Thirty-two adult male Wistar rats were used for the whole study (4 groups of eight animals planned for the study, Table 1).
Surgery was performed on rats weighing about 300 g at the beginning of the experiments. Rats were anaesthetized with Ketamine (50 mg/kg) & Xylazine (15 mg/kg) by intramuscular administration. The animals were placed in a stereotaxic apparatus in the flat-skull position at a constant setting of −3.3 mm between ear bars and the incisor bar. The animals were treated with a local anesthesic (xylocaine 1%, Astra Zeneca) and an analgesic (Temgesic, from Schering Plough, 0.05 mg/kg, s.c.). A rostrocaudal midline incision was made with a lancet to expose the dorsal skull surface. The “stereotaxic zero” was defined by the Bregma in accordance with Paxinos and Watson's atlas (1986). A hole was drilled in the skull with a drill and the meninges were pierced with a sterile needle to implant a CMA12 guide cannula which later received the dialysis probe.
Coordinates used for implanting guide cannula in prefrontal cortex from Bregma were anteroposterior 3.7 mm, mediolateral 0.8 mm, and dorsoventral −2 mm (top of the probe was at −5 mm). The guide cannula was fixed to the skull with two stainless steel screws (1.88 mm outside diameter) anchored. An application of dental cement was added. A plastic collar allowed each animal to be tethered to a Swivel assembly of the CMA 120 awake animal system. Following surgery, rats were kept in individual cages and allowed to recover for a minimum of 3-5 days before the experimentation. The rats were handled and put in plastic bowl for 10 min at least every day to habituate the animals to their new environment for the dialysis. An I.P. administration with saline was also performed every day.
Dialysis probes (CMA12/3 mm, membrane, 20 kD cut-off, Carnegie Medicine, Stockholm, Sweden), were carefully washed before inserting into the guide cannula. The wash was performed with the artificial cerebrospinal fluid (aCSF) medium (NaCl 147 mM, KCl 2.7 mM, CaCl2 1.2 mM, MgCl2 0.85 mM) at room temperature. The dialysis system was then equilibrated at 20° C. at a perfusion rate of 1 μl/min with a Carnegie pump (CMA100). All catheters (FEP tubing, internal volume of 1.2 μl/10 cm, and tubing adaptors) used for microdialysis were treated in the same conditions.
The probes duly prepared were inserted into the guide cannula and the CMA120 Swivel assembly secured to the animal using a plastic collar. Flow through the dialysis probe with aCSF was maintained at a rate of 1 μl/min during the whole experimentation. The first four fractions (corresponding to 2 hours) were discarded to avoid the effects of parenchymal disturbance and to ensure that an approximate steady-state level was reached. Fractions were then collected over a period of 8.5 h during which time the animals remained quiet. The dialysates were automatically collected with an autosampler (microfraction collector CMA 140, Carnegie Medicin) and stored at −80° C. until analysis. […] Perfusion was then maintained for 7 hours with aCSF. The dialysates (30 μl) were collected into 300 μl vials, transferred into dry ice and then kept frozen (−80° C.) until analysis. Frozen samples were shipped to a partner for analysis. At the end of the microdialysis study, a PBS with colored ink was perfused through the probe in order to visualize the dialyzed area.
Catecholamine assay: Concentrations of dopamine, DOPAC, HVA, 5-HIAA, 5-HT, and norepinephrin were determined for each sample by HPLC coupled with electrochemical detection.

[1] = SON-117 3 mg/kg IP, T1 h 30-T2 h
[2] = SON-117 3 mg/kg IP, T1 h-T1 h 30
[3] = SON-117 3 mg/kg IP, T2 h 30-T3 h
[4] = SON-117 3 mg/kg IP, T2 h-T2 h 30
[5] = SON-117 3 mg/kg IP, T3 h 30-T4 h
[6] = SON-117 3 mg/kg IP, T3 h-T3 h 30
[7] = SON-117 3 mg/kg IP, T4 h 30-T5 h
[8] = SON-117 3 mg/kg IP, T4 h-T4 h 30
[9] = SON-117 3 mg/kg IP, T5 h 30-T6 h
[10] = SON-117 3 mg/kg IP, T5 h-T5 h 30
[11] = SON-117 3 mg/kg IP, T6 h 30-T7 h
[12] = SON-117 3 mg/kg IP, T6 h-T6 h 30

In the case of `Cc1nnc(-c2cc3c(OC[C@@H](O)CN4CCC(c5ccc(Cl)c(Cl)c5)CC4)cccc3o2)o1` [SON-117, (S)-1-(4-(3,4-dichlorophenyl)piperidino)-3-(2-(5-methyl-1,3,4-oxadiazol-2-yl)benzo(b)furan-4-yloxy)-2-propanol hydrochloride], the “5-HIAA release (% of basal levels) measured in dialysates, MEAN” value (“5-HIAA release (% of basal levels) … MEAN” for short) (SON-117 3 mg/kg IP, T0-T30 min) is reported as 100.01 % of basal levels, the “5-HIAA release (% of basal levels) … MEAN” value (SON-117 3 mg/kg IP, T30-T1 h) is reported as 103.84 % of basal levels and the “5-HIAA release (% of basal levels) measured in dialysates” value (SON-117 3 mg/kg IP, T30-T1 h) is reported as 107.55 % of basal levels and 89.33 % of basal levels and 88.65 % of basal levels and 110.35 % of basal levels and 117.87 % of basal levels and 100.51 % of basal levels and 111.18 % of basal levels and 105.33 % of basal levels. For the same compound, the “5-HIAA release (% of basal levels) … MEAN” value [1] was 88.78 % of basal levels, the “5-HIAA release (% of basal levels) measured in dialysates” value [1] was 94.24 % of basal levels and 92.41 % of basal levels and 78.82 % of basal levels and 101.67 % of basal levels and 75.13 % of basal levels and 85.33 % of basal levels and 91.45 % of basal levels and 91.21 % of basal levels and the “5-HIAA release (% of basal levels) … MEAN” value [2] was 98.52 % of basal levels. For the same compound, the “5-HIAA release (% of basal levels) measured in dialysates” value [2] was 108.67 % of basal levels and 95.26 % of basal levels and 83.80 % of basal levels and 110.78 % of basal levels and 108.78 % of basal levels and 87.31 % of basal levels and 96.27 % of basal levels and 97.27 % of basal levels, the “5-HIAA release (% of basal levels) … MEAN” value [3] was 84.99 % of basal levels and the “5-HIAA release (% of basal levels) measured in dialysates” value [3] was 110.25 % of basal levels and 75.66 % of basal levels and 71.07 % of basal levels and 93.25 % of basal levels and 73.18 % of basal levels and 83.94 % of basal levels and 86.24 % of basal levels and 86.32 % of basal levels. The “5-HIAA release (% of basal levels) … MEAN” value [4] was 85.83 % of basal levels, the “5-HIAA release (% of basal levels) measured in dialysates” value [4] was 99.74 % of basal levels and 84.01 % of basal levels and 68.40 % of basal levels and 89.07 % of basal levels and 81.80 % of basal levels and 77.11 % of basal levels and 98.05 % of basal levels and 88.46 % of basal levels and the “5-HIAA release (% of basal levels) … MEAN” value [5] was 82.25 % of basal levels. For the same compound, the “5-HIAA release (% of basal levels) measured in dialysates” value [5] was 103.09 % of basal levels and 75.36 % of basal levels and 71.57 % of basal levels and 91.17 % of basal levels and 72.73 % of basal levels and 78.31 % of basal levels and 82.53 % of basal levels and 83.23 % of basal levels, the “5-HIAA release (% of basal levels) … MEAN” value [6] was 83.71 % of basal levels and the “5-HIAA release (% of basal levels) measured in dialysates” value [6] was 100.53 % of basal levels and 78.33 % of basal levels and 73.76 % of basal levels and 91.10 % of basal levels and 69.55 % of basal levels and 76.15 % of basal levels and 84.48 % of basal levels and 95.78 % of basal levels. For the same compound, the “5-HIAA release (% of basal levels) … MEAN” value [7] was 75.41 % of basal levels, the “5-HIAA release (% of basal levels) measured in dialysates” value [7] was 90.13 % of basal levels and 63.71 % of basal levels and 68.51 % of basal levels and 75.52 % of basal levels and 72.02 % of basal levels and 83.31 % of basal levels and 83.67 % of basal levels and 66.44 % of basal levels and the “5-HIAA release (% of basal levels) … MEAN” value [8] was 77.54 % of basal levels. For the same compound, the “5-HIAA release (% of basal levels) measured in dialysates” value [8] was 91.08 % of basal levels and 55.23 % of basal levels and 70.28 % of basal levels and 91.20 % of basal levels and 65.52 % of basal levels and 74.09 % of basal levels and 86.17 % of basal levels and 86.73 % of basal levels, the “5-HIAA release (% of basal levels) … MEAN” value [9] was 71.99 % of basal levels and the “5-HIAA release (% of basal levels) measured in dialysates” value [9] was 82.54 % of basal levels and 68.32 % of basal levels and 64.58 % of basal levels and 71.77 % of basal levels and 60.86 % of basal levels and 67.49 % of basal levels and 79.74 % of basal levels and 80.63 % of basal levels. The “5-HIAA release (% of basal levels) … MEAN” value [10] was 72.53 % of basal levels, the “5-HIAA release (% of basal levels) measured in dialysates” value [10] was 84.10 % of basal levels and 66.07 % of basal levels and 66.30 % of basal levels and 74.75 % of basal levels and 64.08 % of basal levels and 74.08 % of basal levels and 79.04 % of basal levels and 71.85 % of basal levels and the “5-HIAA release (% of basal levels) … MEAN” value [11] was 73.41 % of basal levels. For the same compound, the “5-HIAA release (% of basal levels) measured in dialysates” value [11] was 83.14 % of basal levels and 67.51 % of basal levels and 58.65 % of basal levels and 82.71 % of basal levels and 65.19 % of basal levels, the “5-HIAA release (% of basal levels) … MEAN” value [12] was 69.60 % of basal levels and the “5-HIAA release (% of basal levels) measured in dialysates” value [12] was 74.73 % of basal levels and 64.32 % of basal levels and 54.46 % of basal levels and 81.53 % of basal levels and 68.15 % of basal levels and 73.95 % of basal levels and 70.08 % of basal levels. The “5-HIAA release (% of basal levels) … MEAN” value (SON-117 3 mg/kg IP, T-30 min-T0 (pre-administration)) was 102.90 % of basal levels, the “5-HIAA release (% of basal levels) … MEAN” value (SON-117 3 mg/kg IP, T-1 h 30-T-1 h (pre-administration)) was 94.73 % of basal levels and the “5-HIAA release (% of basal levels) … MEAN” value (SON-117 3 mg/kg IP, T-1 h-T-30 min (pre-administration)) was 102.37 % of basal levels. The “5-HIAA concentration in prefrontal cortex, significant and stable decrease, max.” value (SON-117 3 mg/kg IP, from 2 h to 7 h) was 72%, the “levels of 5-HIAA compared to the citalopram treated group (significant)” value (SON-117 3 mg/kg, at 3 h and 3.5 h) was “higher” and the “5-HIAA (% of respective basal) MEAN” value (T0-T30 min) was 94.78 % of respective basal. The “5-HIAA (% of respective basal) MEAN” value (T30-T1 h) was 114.88 % of respective basal, the “5-HIAA (% of respective basal) MEAN” value (T1 h 30-T2 h) was 102.18 % of respective basal and the “5-HIAA (% of respective basal) MEAN” value (T1 h-T1 h 30) was 119.57 % of respective basal. For the same compound, the “5-HIAA (% of respective basal) MEAN” value (T2 h 30-T3 h) was 94.10 % of respective basal, the “5-HIAA (% of respective basal) MEAN” value (T2 h-T2 h 30) was 92.09 % of respective basal and the “5-HIAA (% of respective basal) MEAN” value (T3 h 30-T4 h) was 94.62 % of respective basal. The “5-HIAA (% of respective basal) MEAN” value (T3 h-T3 h 30) was 92.14 % of respective basal, the “5-HIAA (% of respective basal) MEAN” value (T4 h 30-T5 h) was 97.11 % of respective basal and the “5-HIAA (% of respective basal) MEAN” value (T4 h-T4 h 30) was 108.99 % of respective basal. For the same compound, the “5-HIAA (% of respective basal) MEAN” value (T5 h 30-T6 h) was 90.37 % of respective basal, the “5-HIAA (% of respective basal) MEAN” value (T5 h-T5 h 30) was 96.07 % of respective basal and the “5-HIAA (% of respective basal) MEAN” value (T6 h 30-T7 h) was 92.61 % of respective basal. For the same compound, the “5-HIAA (% of respective basal) MEAN” value (T6 h-T6 h 30) was 92.22 % of respective basal, the “5-HIAA (% of respective basal) MEAN” value (T-30 min-T0 (before administration)) was 101.47 % of respective basal and the “5-HIAA (% of respective basal) MEAN” value (T-1 h 30-T-1 h (before administration)) was 98.52 % of respective basal. For the same compound, the “5-HIAA (% of respective basal) MEAN” value (T-1 h-T-30 min (before administration)) was 100.01 % of respective basal.

— patent US20250109127A1, “METHODS OF USE OF PHENOXYPROPYLAMINE COMPOUNDS TO TREAT DEPRESSION” (Minerva Neurosciences, Inc., priority 2013, published 2025)
